In PubChem BioAssay (NCI):
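Where inhibition never reached the appropriate level, the endpoint shown equals the highest concentration tested. Otherwise, values were interpolated linearly from a five-concentration, 48-hour dose response in 96-well plates. The concentration for full growth arrest is given as TGI.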

Tests used:
Experiment in all cases: NCI-60 cell line screen, 48 h
[1] = system: SN12C renal
[2] = system: A549 NSCLC
[3] = system: OVCAR-4 ovarian
[4] = system: SNB-75 CNS
[5] = system: MDA-N
[6] = system: CCRF-CEM leukemia
[7] = system: NCI/ADR-RES ovarian
[8] = system: SW-620 colon
[9] = system: NCI-H23 lung
[10] = system: OVCAR-3 ovarian
[11] = system: BT-549 breast
[12] = system: PC-3 prostate
[13] = system: CAKI-1 renal
[14] = system: MOLT-4 leukemia
[15] = system: SK-OV-3 ovarian
[16] = system: HCT-116 colon
[17] = system: MDA-MB-435
[18] = system: SF-295 CNS
[19] = system: TK-10 renal
[20] = system: T-47D breast
[21] = system: 786-0 renal
[22] = system: DU-145 prostate
[23] = system: LOX IMVI melanoma
[24] = system: SK-MEL-5 melanoma
[25] = system: OVCAR-8 ovarian
[26] = system: U251 CNS
[27] = system: HL-60(TB) leukemia
[28] = system: NCI-H522 lung
[29] = system: UO-31 renal
[30] = system: SK-MEL-28 melanoma
[31] = system: HS 578T breast
[32] = system: UACC-62 melanoma
[33] = system: MALME-3M melanoma
[34] = system: RPMI-8226 leukemia
[35] = system: COLO 205 colon
[36] = system: KM12 colon
[37] = system: EKVX NSCLC
[38] = system: RXF 393 renal
[39] = system: NCI-H226 lung
[40] = system: OVCAR-5 ovarian
[41] = system: ACHN renal
[42] = system: MCF7 breast
[43] = system: HT29 colon
[44] = system: M14 melanoma
[45] = system: UACC-257 melanoma
[46] = system: SR leukemia
[47] = system: HCT-15 colon
[48] = system: SF-268 CNS
[49] = system: SNB-19 CNS
[50] = system: SF-539 CNS
[51] = system: NCI-H460 lung
[52] = system: IGROV1 ovarian
[53] = system: K-562 leukemia
[54] = system: HOP-62 NSCLC
[55] = system: HOP-92 NSCLC
[56] = system: MDA-MB-231 breast
[57] = system: SK-MEL-2 melanoma
[58] = system: HCC-2998 colon
[59] = system: A498 renal

COc1ccc(N2C(=O)C(=O)C3(CCCCC3)C2=O)c(OC)c1OC
TGI [1]: > 100 µM
TGI [2]: > 100 µM
TGI [3]: > 100 µM
TGI [4]: > 100 µM
TGI [5]: > 100 µM
TGI [6]: > 100 µM
TGI [7]: > 100 µM
TGI [8]: > 100 µM
TGI [9]: > 100 µM
TGI [10]: > 100 µM
TGI [11]: > 100 µM
TGI [12]: > 100 µM
TGI [13]: > 100 µM
TGI [14]: > 100 µM
TGI [15]: > 100 µM
TGI [16]: > 100 µM
TGI [17]: > 100 µM
TGI [18]: > 100 µM
TGI [19]: > 100 µM
TGI [20]: > 100 µM
TGI [21]: > 100 µM
TGI [22]: > 100 µM
TGI [23]: > 100 µM
TGI [24]: > 100 µM
TGI [25]: > 100 µM
TGI [26]: > 100 µM
TGI [27]: > 100 µM
TGI [28]: > 100 µM
TGI [29]: > 100 µM
TGI [30]: > 100 µM
TGI [31]: > 100 µM
TGI [32]: > 100 µM
TGI [33]: > 100 µM
TGI [34]: > 100 µM
TGI [35]: > 100 µM
TGI [36]: > 100 µM
TGI [37]: > 100 µM
TGI [38]: > 100 µM
TGI [39]: > 100 µM
TGI [40]: > 100 µM
TGI [41]: > 100 µM
TGI [42]: > 100 µM
TGI [43]: > 100 µM
TGI [44]: > 100 µM
TGI [45]: > 100 µM
TGI [46]: > 100 µM
TGI [47]: > 100 µM
TGI [48]: > 100 µM
TGI [49]: > 100 µM
TGI [50]: > 100 µM

CP(=O)(O)C(N)c1ccccc1 (stereo not given)
TGI [1]: > 100 µM
TGI [2]: > 100 µM
TGI [3]: > 100 µM
TGI [51]: > 100 µM
TGI [5]: > 100 µM
TGI [6]: > 100 µM
TGI [7]: > 100 µM
TGI [8]: > 100 µM
TGI [9]: > 100 µM
TGI [10]: > 100 µM
TGI [11]: > 100 µM
TGI [12]: > 100 µM
TGI [13]: > 100 µM
TGI [52]: > 100 µM
TGI [14]: > 100 µM
TGI [15]: > 100 µM
TGI [16]: > 100 µM
TGI [17]: > 100 µM
TGI [18]: > 100 µM
TGI [19]: > 100 µM
TGI [53]: > 100 µM
TGI [20]: > 100 µM
TGI [21]: > 100 µM
TGI [22]: > 100 µM
TGI [54]: > 100 µM
TGI [23]: > 100 µM
TGI [24]: > 100 µM
TGI [25]: > 100 µM
TGI [26]: > 100 µM
TGI [27]: > 100 µM
TGI [28]: > 100 µM
TGI [29]: > 100 µM
TGI [30]: > 100 µM
TGI [31]: > 100 µM
TGI [32]: > 100 µM
TGI [33]: > 100 µM
TGI [34]: > 100 µM
TGI [35]: > 100 µM
TGI [36]: > 100 µM
TGI [37]: > 100 µM
TGI [39]: > 100 µM
TGI [40]: > 100 µM
TGI [41]: > 100 µM
TGI [42]: > 100 µM
TGI [43]: > 100 µM
TGI [55]: > 100 µM
TGI [44]: > 100 µM
TGI [45]: > 100 µM
TGI [46]: > 100 µM
TGI [47]: > 100 µM
TGI [48]: > 100 µM
TGI [49]: > 100 µM

COC(=O)C1CCCN1C(=O)OC(C)(C)C (stereo not given)
TGI [1]: > 100 µM
TGI [2]: > 100 µM
TGI [3]: > 100 µM
TGI [51]: > 100 µM
TGI [4]: > 100 µM
TGI [5]: > 100 µM
TGI [6]: > 100 µM
TGI [7]: > 100 µM
TGI [8]: > 100 µM
TGI [9]: > 100 µM
TGI [10]: > 100 µM
TGI [11]: > 100 µM
TGI [56]: > 100 µM
TGI [12]: > 100 µM
TGI [57]: > 100 µM
TGI [13]: > 100 µM
TGI [52]: > 100 µM
TGI [14]: > 100 µM
TGI [15]: > 100 µM
TGI [16]: > 100 µM
TGI [17]: > 100 µM
TGI [18]: > 100 µM
TGI [19]: > 100 µM
TGI [53]: > 100 µM
TGI [20]: > 100 µM
TGI [21]: > 100 µM
TGI [22]: > 100 µM
TGI [54]: > 100 µM
TGI [23]: > 100 µM
TGI [24]: > 100 µM
TGI [26]: > 100 µM
TGI [29]: > 100 µM
TGI [30]: > 100 µM
TGI [32]: > 100 µM
TGI [58]: > 100 µM
TGI [35]: > 100 µM
TGI [36]: > 100 µM
TGI [37]: > 100 µM
TGI [38]: > 100 µM
TGI [39]: > 100 µM
TGI [40]: > 100 µM
TGI [41]: > 100 µM
TGI [42]: > 100 µM
TGI [43]: > 100 µM
TGI [45]: > 100 µM
TGI [46]: > 100 µM
TGI [47]: > 100 µM
TGI [48]: > 100 µM
TGI [49]: > 100 µM

NNc1ncnc2cccc(Cl)c12
TGI [1]: > 100 µM
TGI [2]: > 100 µM
TGI [3]: > 100 µM
TGI [51]: > 100 µM
TGI [4]: > 100 µM
TGI [5]: > 100 µM
TGI [6]: > 100 µM
TGI [7]: > 100 µM
TGI [8]: > 100 µM
TGI [9]: > 100 µM
TGI [10]: > 100 µM
TGI [11]: > 100 µM
TGI [56]: > 100 µM
TGI [12]: > 100 µM
TGI [13]: > 100 µM
TGI [52]: > 100 µM
TGI [14]: > 100 µM
TGI [15]: > 100 µM
TGI [16]: > 100 µM
TGI [18]: > 100 µM
TGI [19]: > 100 µM
TGI [53]: > 100 µM
TGI [59]: > 100 µM
TGI [20]: > 100 µM
TGI [21]: > 100 µM
TGI [22]: > 100 µM
TGI [54]: > 100 µM
TGI [24]: > 100 µM
TGI [25]: > 100 µM
TGI [26]: > 100 µM
TGI [27]: > 100 µM
TGI [28]: > 100 µM
TGI [29]: > 100 µM
TGI [30]: > 100 µM
TGI [31]: > 100 µM
TGI [32]: > 100 µM
TGI [58]: > 100 µM
TGI [33]: > 100 µM
TGI [35]: > 100 µM
TGI [36]: > 100 µM
TGI [37]: 32 µM
TGI [38]: > 100 µM
TGI [39]: > 100 µM
TGI [40]: > 100 µM
TGI [41]: > 100 µM
TGI [42]: > 100 µM
TGI [43]: > 100 µM
TGI [44]: > 100 µM
TGI [45]: > 100 µM
TGI [46]: > 100 µM
TGI [47]: > 100 µM
TGI [48]: > 100 µM
TGI [49]: > 100 µM
TGI [50]: > 100 µM
